Literature values as cited in patent publication US20140004176A1, “DELIVERY OF TREATMENTS TRANSDERMALLY FOR FUNGAL INFECTIONS AND OTHER INDICATIONS” (Strategic Science & Techologies, priority 2010, published 2014).

In the case of `C[C@@H](c1ncncc1F)[C@](O)(Cn1cncn1)c1ccc(F)cc1F` [voriconazole], the pKa is listed as 1.76.
